Assay results published in ChEMBL document CHEMBL2417387, “Development of a pharmacophore model for the catecholamine release-inhibitory peptide catestatin: virtual screening and functional testing identify novel small molecule therapeutics of hypertension” (Bioorg Med Chem, 2013).
pIC50: −log10 of the molar value. Each block holds one compound with its values, some of them ahead of it. Active and inactive are the calls of the source. The rule behind the calls is not given here.

Key:
[1] = Inhibition of nicotinic cholinergic receptor in rat PC12 cells assessed as inhibition of nicotine-stimulated [3H]-norepinephrine release after 30 mins by liquid scintillation counting analysis; format: cell-based; details: PC-12
[2] = (§1) Inhibition of nicotinic cholinergic receptor in rat PC12 cells assessed as inhibition of nicotine-stimulated 45Ca2+ uptake after 2 mins by liquid scintillation counting analysis; format: cell-based; details: PC-12, 2 min
PC-12 [3] = assay: as §1; format: cell-based
PC-12 [4] = assay: Cytotoxicity against rat PC12 cells assessed as cell viability at 5 to 10 uM after 24 hrs by trypan blue exclusion assay relative to control; format: cell-based; details: pc-12, 24 h
PC-12 [5] = assay: Noncompetitive inhibition of nicotinic cholinergic receptor in rat PC12 cells assessed as inhibition of 100 to 1000 uM nicotine-induced [3H]-norepinephrine release at 5 uM after 30 mins by liquid scintillation counting analysis; format: cell-based
PC-12 [6] = assay: Inhibition of ionomycin-mediated catecholamine secretion in rat PC12 cells at 5 uM after 30 mins by liquid scintillation counting analysis; format: functional, cell-based
PC-12 [7] = assay: Inhibition of ATP-induced P2X receptor activation in rat PC12 cells assessed as inhibition of catecholamine secretion at 5 uM after 30 mins by liquid scintillation counting analysis; format: cell-based
PC-12 [8] = assay: Inhibition of BaCl2-induced potassium channel blockade in rat PC12 cells assessed as inhibition of catecholamine secretion at 5 uM after 30 mins by liquid scintillation counting analysis; format: functional, cell-based
PC-12 [9] = assay: Inhibition of KCl-induced membrane depolarization in rat PC12 cells assessed as inhibition of catecholamine secretion at 5 uM after 30 mins by liquid scintillation counting analysis; format: functional, cell-based
PC-12 [10] = assay: Inhibition of nicotinic cholinergic receptor-mediated [3H]-norepinephrine release in rat PC12 cells after 30 mins by liquid scintillation counting analysis; format: cell-based
Mus musculus [11] = assay: Toxicity in BPH/2J mouse polygenic hypertensive model assessed as reflex tachycardia at 5 ug/g, ip measured for 24 hrs by telemetry; format: organism-based; details: in vivo
Mus musculus [12] = assay: Antihypertensive activity in BPH/2J mouse polygenic hypertensive model assessed as reduction in heart rate at 5 ug/g, ip measured for 24 hrs by telemetry; format: functional
Mus musculus [13] = assay: Antihypertensive activity in BPH/2J mouse polygenic hypertensive model assessed as reduction in diastolic blood pressure at 5 ug/g, ip up to 60 mins by telemetry; format: functional, Artery
Mus musculus [14] = assay: Antihypertensive activity in BPH/2J mouse polygenic hypertensive model assessed as reduction in systolic blood pressure at 5 ug/g, ip up to 60 mins by telemetry; format: functional, Artery

Compound: C/N=C(\NC)c1ccc(NC(=O)Nc2cccc(NC(=O)Nc3ccc(/C(=N/C)NC)cc3)c2)cc1
pIC50 [2]: 7.15
inhibition (PC-12 [3]): Dose-dependent effect
pIC50 [1]: 7.39

Compound: Cc1ccnc(NS(=O)(=O)c2ccc(/N=N/c3cc(/N=N/c4ccccc4)c(N)nc3N)cc2)n1
pIC50 [1]: < 5.30

Compound: CNC(=O)c1cc(NC(=O)Nc2cccc(C3=NCCN3)c2)cc(NC(=O)Nc2cccc(C3=NCCN3)c2)c1
pIC50 [2]: 7.00
inhibition (PC-12 [3]): Dose-dependent effect
Activity (PC-12 [4]): Non-toxic
inhibition (PC-12 [5]): Active
inhibition (PC-12 [6]): inactive
inhibition (PC-12 [7]): inactive
inhibition (PC-12 [8]): inactive
inhibition (PC-12 [9]): inactive
inhibition (PC-12 [10]): inactive
pIC50 [1]: 6.00

Compound: Nc1nc(N)c(/N=N/c2ccc(S(=O)(=O)Nc3ccccn3)cc2)cc1/N=N/c1ccccc1
pIC50 [1]: 5.70

Compound: Nc1nc(N)c2nc(CNc3ccc(C(=O)N[C@@H](CCC(=O)O)C(=O)O)cc3)cnc2n1 [AMINOPTERIN]
pIC50 [1]: < 5.30

Compound: Cc1cc(NC(=O)NCc2ccc(N3C(N)=NC(N)=NC3(C)C)cc2)ccc1S(=O)(=O)F
pIC50 [1]: 6.06

Compound: C/N=C(\NC)c1ccc(NC(=O)Nc2ccc(C)c(NC(=O)Nc3ccc(/C(=N/C)NC)cc3)c2)cc1
pIC50 [2]: 7.00
inhibition (PC-12 [3]): Dose-dependent effect
pIC50 [1]: 7.62

Compound: CC1(C)N=C(N)N=C(N)N1c1ccc(CNC(=O)Nc2ccccc2)cc1
pIC50 [1]: < 5.30

Compound: C/N=C(\NC)c1ccc(/N=C(\NC)c2ccc(/C(=N/c3ccc(/C(=N/C)NC)cc3)NC)cc2)cc1
pIC50 [1]: 5.77

Compound: O=C(Nc1cc(C2=NCCN2)cc(C2=NCCN2)c1)Nc1cc(C2=NCCN2)cc(C2=NCCN2)c1
pIC50 [1]: < 5.30

Compound: C[N+](C)(C)CC[N+]1(C)Cc2c(Cl)c(Cl)c(Cl)c(Cl)c2C1
inhibition (PC-12 [5]): Active

Compound: CNC(=O)c1ccc(NC(=O)Nc2cccc(C3=NCCN3)c2)cc1NC(=O)Nc1cccc(C2=NCCN2)c1
pIC50 [1]: 5.85

Compound: Nc1ccc(CCCCc2nc(N)nc(N)c2-c2ccc(Cl)c(Cl)c2)cc1
pIC50 [1]: 5.59

Compound: CCN(CC)CC(O)CNC1=N/C(=N/C(=N)Nc2ccc(Cl)c(Cl)c2)N=C(C)C1 (configuration not stated)
Activity (PC-12 [4]): Non-toxic
inhibition (PC-12 [5]): Active
inhibition (PC-12 [6]): inactive
inhibition (PC-12 [7]): inactive
inhibition (PC-12 [8]): inactive
inhibition (PC-12 [9]): inactive
inhibition (PC-12 [10]): inactive
pIC50 [1]: 6.17

Continued, in another order:

pIC50 [1]: 5.74
Compound: C/N=C(\N)c1ccc(/N=C(\N)c2ccc(Cl)c(/C(N)=N/c3ccc(C(=N)NC)cc3)c2)cc1

pIC50 [2]: 7.05
pIC50 [1]: 7.77
Compound: C/C(=N\NC(=N)N)c1cccc(NC(=S)Nc2cccc(/C(C)=N/NC(=N)N)c2)c1
Activity (Mus musculus [11]): Non-toxic
Activity (Mus musculus [12]): 180 bpm
Activity (Mus musculus [13]): 25 mmHg
Activity (Mus musculus [14]): 33 mmHg
inhibition (PC-12 [3]): Dose-dependent effect

pIC50 [1]: 6.35
Compound: CCN1CCC(CNc2cc(C)nc(NC(=N)Nc3ccc(Cl)c(Cl)c3)n2)C1 (configuration not stated)

pIC50 [1]: 5.72
Compound: CCN1CCC(CNc2cc(C)nc(NC(=N)Nc3cc(Cl)cc(Cl)c3)n2)C1 (configuration not stated)

pIC50 [1]: 5.82
Compound: Nc1nc(N)c(-c2ccc(Cl)cc2)c(CCc2ccc(NC(=O)CBr)cc2)n1

pIC50 [1]: 5.96
Compound: CCN1CCCC(Nc2cc(C)nc(NC(=N)Nc3ccc(Cl)c(Cl)c3)n2)C1 (configuration not stated)

pIC50 [1]: 5.80
Compound: CCN/C(=N\c1cccc(C2=NCCN2)c1)c1ccc(/C(=N/c2cccc(C3=NCCN3)c2)NCC)cc1
